Measured values published in patent publication US20250177408A1, “INHIBITOR OF INTERACTION BETWEEN YAP/TAZ AND TEAD, PREPARATION THEREOF, PHARMACEUTICAL COMPOSITION THEREOF AND USE THEREOF” (ETERN BIOPHARMA (SHANGHAI) CO., LTD., priority 2022, published 2025).

Assays:
[1] = biological target: YAP-TEAD protein interaction (His-TEAD1 (209-426) protein, Bio-YAP peptide (60-100)) (Homo sapiens, UniProt P28347); assay: YAP-TEAD protein interaction HTRF experiment; assay type: binding; settings: His-TEAD1 (209-426) 10 nM, Bio-YAP peptide 50 nM, read-out: Activity of each compound in blocking YAP-TEAD protein interaction (grades of IC50 values)
Chain of YAP-TEAD protein interaction (His-TEAD1 (209-426) protein, Bio-YAP peptide (60-100)) (P28347 209-426): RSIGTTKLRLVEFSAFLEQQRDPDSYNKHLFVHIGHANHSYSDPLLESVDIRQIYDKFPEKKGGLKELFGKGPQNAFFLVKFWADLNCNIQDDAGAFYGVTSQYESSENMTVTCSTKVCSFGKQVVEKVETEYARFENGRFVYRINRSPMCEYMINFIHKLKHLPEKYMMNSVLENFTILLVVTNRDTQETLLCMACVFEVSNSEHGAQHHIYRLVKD
How it was run: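 His-TEAD1 (209-426) at 10 nM final was preincubated 20 min at RT with compounds (10-point 3-fold dilutions, duplicates, 1% DMSO), then Bio-YAP peptide, 10 min. Anti-His-Eu cryptate/streptavidin-XL665 added for 1 h at RT; HTRF read at ex 320 nm, Em665/Em620 ratio ×10000, IC50 from % inhibition.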

MSTO-211H cells = assay: Cell proliferation inhibition experiment (CellTiter-Glo); assay type: cell-based; settings: Homo sapiens, 96 hours, read-out: Inhibitory activity of each compound on the proliferation of MSTO-211H cells (grades of IC50 values)
How it was run: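 MSTO-211H cells (1500/well, RPMI1640 + 10% FBS) were plated overnight at 37° C, 5% CO2, then exposed in duplicate to 9 three-fold compound dilutions (DMSO ≤0.5% final) for 96 hours. Viability was read as CellTiter-Glo luminescence after 10 min at room temperature. IC50 was derived from inhibition of the CTG signal.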

Structure (SMILES)	IC50 [1]	IC50 (MSTO-211H cells)
NC(=O)c1cc2c(c(F)c1-c1c(Cl)c(F)cc3c1C[C@](c1ccccc1)([C@@H]1CCCN1)O3)Oc1c(cnn(C3CC(F)(F)C3)c1=O)O2 (atropisomer, axis not shown) [Compound 147, (S)-8-((S)-5-Chloro-6-fluoro-2-phenyl-2-((S)-pyrrolidin-2-yl)-2,3-dihydrobenzofuran-4-yl)-2-(3,3-difluorocyclobutyl)-9-fluoro-1-oxo-1,2-dihydrobenzo[5,6][1,4]dioxa[2,3-d]pyridazine-7-carboxamide]	< 0.05 µM	< 0.2 µM
[2H]C1([2H])CC[C@]([2H])([C@@]2(c3ccccc3)Cc3c(cc(F)c(Cl)c3-c3c(C(N)=O)cc4c(c3F)Oc3c(cnn(CC(F)(F)F)c3=O)O4)O2)N1 (atropisomer, axis not shown) [Compound 153, (S)-8-((S)-5-Chloro-6-fluoro-2-phenyl-2-((S)-pyrrolidin-2-yl-2,5,5-d3)-2,3-dihydrobenzofuran-4-yl)-9-fluoro-1-oxo-2-(2,2,2-trifluoroethyl)-1,2-dihydroxybenzo[5,6][1,4] dioxo [2,3-d]pyridazine-7-carboxamide]	< 0.05 µM	< 0.2 µM
Cn1ccc2c(c1=O)Oc1c(cc(C(N)=O)c(-c3c(Cl)c(F)cc4c3C[C@](c3ccccc3)([C@@H]3CCCN3)O4)c1F)O2 (atropisomer, axis not shown) [Compound 135, (S)-8-((S)-5-Chloro-6-fluoro-2-phenyl-2-((S)-pyrrolidin-2-yl)-2,3-dihydrobenzofuran-4-yl)-9-fluoro-2-methyl-1-oxo-1,2-dihydrobenzo[5,6][1,4]dioxo[2,3-c]pyridine-7-carboxamide]	< 0.05 µM	< 0.2 µM
CCn1cc2c(n1)COc1c-2cc(C(N)=O)c(-c2c(Cl)c(F)cc3c2C[C@](c2ccccc2)([C@@H]2CCCN2)O3)c1F (atropisomer, axis not shown) [Compound 62, (S)-7-((S)-5-Chloro-6-fluoro-2-phenyl-2-((S)-pyrrolidin-2-yl)-2,3-dihydrobenzofuran-4-yl)-2-ethyl-6-fluoro-2,4-dihydrochromeno[3,4-c]pyrazole-8-carboxamide]	< 0.05 µM	< 0.2 µM
CNC[C@@]1(c2ccccc2)Cc2c(cc(F)c(Cl)c2-c2c(C(N)=O)cc3c(c2F)OCc2nn(C)cc2-3)O1 (atropisomer, axis not shown) [Compound 41, (S)-7-((S)-5-Chloro-6-fluoro-2-((methylamino)methyl)-2-phenyl-2,3-dihydrobenzofuran-4-yl)-6-fluoro-2-methyl-2,4-dihydrochromeno[3,4-c]pyrazole-8-carboxamide]	< 0.05 µM	< 0.2 µM
NC(=O)c1cc2c(c(F)c1-c1c(Cl)c(F)cc3c1C[C@](c1ccccc1)([C@@H]1CCCN1)O3)Oc1ncn(CCF)c(=O)c1O2 (atropisomer, axis not shown) [Compound 138, (S)-8-((S)-5-Chloro-6-fluoro-2-phenyl-2-((S)-pyrrolidin-2-yl)-2,3-dihydrobenzofuran-4-yl)-9-fluoro-3-(2-fluoroethyl)-4-oxo-3,4-dihydrobenzo [5,6][1,4]dioxo [2,3-d]pyrimidine-7-carboxamide]	< 0.05 µM	< 0.2 µM
NC(=O)c1cc2c(c(F)c1-c1c(Cl)c(F)cc3c1C[C@](c1ccccc1)([C@@H]1CCCN1)O3)Oc1c(cnn(CC(F)(F)F)c1=O)O2 (atropisomer, axis not shown) [Compound 143, (S)-8-((S)-5-Chloro-6-fluoro-2-phenyl-2-((S)-pyrrolidin-2-yl)-2,3-dihydrobenzofuran-4-yl)-9-fluoro-1-oxo-2-(2,2,2-trifluoroethyl)-1,2-dihydroxybenzo[5,6][1,4]dioxo[2,3-d]pyridazine-7-carboxamide]	< 0.05 µM	< 0.2 µM

Now from value to compound, other results behind:

IC50 [1]	Structure (SMILES)	IC50 (MSTO-211H cells)
< 0.05 µM	NC(=O)c1cc2cn[nH]c2c(F)c1-c1c(Cl)c(F)cc2c1C[C@](c1ccccc1)([C@@H]1CCCN1)O2 (atropisomer, axis not shown) [Compound I-30, (S)-6-((S)-5-Chloro-6-fluoro-2-phenyl-2-((S)-pyrrolidin-2-yl)-2,3-dihydrobenzofuran-4-yl)-7-fluoro-1H-indazole-5-carboxamide]	0.2 to 0.5 µM
< 0.05 µM	NC(=O)c1cc2c(c(F)c1-c1c(Cl)c(F)cc3c1C[C@](c1ccccc1)([C@@H]1CCCN1)O3)Oc1cnncc1O2 (atropisomer, axis not shown) [Compound 67, (S)-8-((S)-5-Chloro-6-fluoro-2-phenyl-2-((S)-pyrrolidin-2-yl)-2,3-dihydrobenzofuran-4-yl)-9-fluorobenzo[5,6][1,4]dioxo[2,3-d]pyridazine-7-carboxamide]	0.2 to 0.5 µM
< 0.05 µM	NC(=O)c1cc2c(c(F)c1-c1c(Cl)c(F)cc3c1C[C@](c1ccccc1)([C@@H]1CCCN1)O3)OCC1(CC1)O2 (atropisomer, axis not shown) [Compound 5, (S)-6-((S)-5-Chloro-6-fluoro-2-phenyl-2-((S)-pyrrolidin-2-yl)-2,3-dihydrobenzofuran-4-yl)-5-fluoro-3H-spiro[benzo[b][1,4]dioxoine-2, l'-cyclopropane]-7-carboxamide]	< 0.2 µM
< 0.05 µM	CO[C@H]1CC[C@H](NC[C@@]2(c3ccccc3)Cc3c(cc(F)c(Cl)c3-c3c(C(N)=O)cc4c(c3F)OCc3nn(C)cc3-4)O2)CC1 (atropisomer, axis not shown) [Compound 78, (S)-7-((S)-5-Chloro-6-fluoro-2-((((1R,4S)-4-methoxycyclohexyl)amino)methyl)-2-phenyl-2,3-dihydrobenzofuran-4-yl)-6-fluoro-2-methyl-2,4-dihydrochromeno[3,4-c]pyrazole-8-carboxamide]	< 0.2 µM
< 0.05 µM	[2H]C1([2H])CC[C@]([2H])([C@@]2(c3ccccc3)Cc3c(cc(F)c(Cl)c3-c3c(C(=O)NC)cc4c(c3F)Oc3c(cnn(C5CC(F)(F)C5)c3=O)O4)O2)N1 (atropisomer, axis not shown) [Compound 158, (S)-8-((S)-5-Chloro-6-fluoro-2-phenyl-2-((S)-pyrrolidin-2-yl-2,5,5-d3)-2,3-dihydrobenzofuran-4-yl)-2-(3,3-difluorocyclobutyl)-9-fluoro-N-methyl-1-oxo-1,2-dihydrobenzo[5,6][1,4]dioxo [2,3-d]pyridazine-7-carboxamide]	< 0.2 µM
< 0.05 µM	[2H]C([2H])([2H])n1ncc2c(c1=O)Oc1cc(C(N)=O)c(-c3c(Cl)c(F)cc4c3C[C@](c3ccccc3)([C@@H]3CCCN3)O4)c(F)c1O2 (atropisomer, axis not shown) [Compound 132, (S)-8-((S)-5-Chloro-6-fluoro-2-phenyl-2-((S)-pyrrolidin-2-yl)-2,3-dihydrobenzofuran-4-yl)-9-fluoro-3-(methyl-d3)-4-oxo-3,4-dihydrobenzo[5,6][1,4]dioxo[2,3-d]pyridazine-7-carboxamide]	< 0.2 µM
< 0.05 µM	[2H]C1([2H])CC[C@]([2H])([C@@]2(c3ccccc3)Cc3c(cc(F)c(Cl)c3-c3c(C(N)=O)cc4c(c3F)Oc3c(cnn(CC(F)F)c3=O)O4)O2)N1 (atropisomer, axis not shown) [Compound 152, (S)-8-((S)-5-Chloro-6-fluoro-2-phenyl-2-((S)-pyrrolidin-2-yl-2,5,5-d3)-2,3-dihydrobenzofuran-4-yl)-2-(2,2-difluoroethyl)-9-fluoro-1-oxo-1,2-dihydrobenzo [5,6][1,4]dioxo [2,3-d]pyridazine-7-carboxamide]	< 0.2 µM
